Data as given in article PMC10709319, “Glycosyltransferase 8 domain-containing protein 1 (GLT8D1) is a UDP-dependent galactosyltransferase” (Scientific Reports, 2023).

biological target: T1, GLT8D1 (recombinant secretory glycosyltransferase 8 domain-containing protein 1) (Homo sapiens, UniProt Q68CQ7); experiment: intrinsic tryptophan fluorescence DSF (nanoDSF); format: binding; conditions: 0.1 mM ligand, 1 mM MnCl2, 50 mM Tris-HCl pH 7.5; shift relative to Mn2+ alone
T1 construct: lumenal catalytic domain 52-371; GFP fusion kept; secreted from HEK293-F cells; N-glycosylated; expected mass 67,624 Da
T1 sequence (Q68CQ7 52-371): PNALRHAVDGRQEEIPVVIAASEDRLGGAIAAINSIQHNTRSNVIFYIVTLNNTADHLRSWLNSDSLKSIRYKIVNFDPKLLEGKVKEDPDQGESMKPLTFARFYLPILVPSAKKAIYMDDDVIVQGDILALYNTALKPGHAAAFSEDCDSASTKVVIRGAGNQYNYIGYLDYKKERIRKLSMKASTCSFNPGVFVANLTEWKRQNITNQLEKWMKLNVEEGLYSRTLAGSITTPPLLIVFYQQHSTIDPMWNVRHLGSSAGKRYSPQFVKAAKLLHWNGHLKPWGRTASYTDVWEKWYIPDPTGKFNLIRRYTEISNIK

Row | SMILES | ΔTm
1 | Nc1ccn([C@@H]2O[C@H](COP(=O)(O)O)[C@@H](O)[C@H]2O)c(=O)n1 [CMP] | + 1.3 °C
2 | CC(=O)N[C@H]1[C@@H](OP(=O)(O)OP(=O)(O)OC[C@H]2O[C@@H](n3ccc(=O)[nH]c3=O)[C@H](O)[C@@H]2O)O[C@H](CO)[C@H](O)[C@@H]1O [UDP-GalNAc] | ~ 2 °C
3 | CC(=O)N[C@H]1[C@@H](OP(=O)(O)OP(=O)(O)OC[C@H]2O[C@@H](n3ccc(=O)[nH]c3=O)[C@H](O)[C@@H]2O)O[C@H](CO)[C@@H](O)[C@@H]1O [UDP-GlcNAc] | ~ 2 °C

Now from value to compound:

Row | ΔTm | SMILES
4 | + 7.7 °C | Nc1nc2c(ncn2[C@@H]2O[C@H](COP(=O)(O)OP(=O)(O)O)[C@@H](O)[C@H]2O)c(=O)[nH]1 [GDP]
5 | + 4.9 °C | O=C(O)[C@H]1O[C@H](OP(=O)(O)OP(=O)(O)OC[C@H]2O[C@@H](n3ccc(=O)[nH]c3=O)[C@H](O)[C@@H]2O)[C@H](O)[C@@H](O)[C@@H]1O [UDP-GlcA]
6 | ~ 2 °C | O=c1ccn([C@@H]2O[C@H](COP(=O)(O)OP(=O)(O)O[C@H]3OC[C@@H](O)[C@H](O)[C@H]3O)[C@@H](O)[C@H]2O)c(=O)[nH]1 [UDP-Xyl]
7 | + 11.2 °C | O=c1ccn([C@@H]2O[C@H](COP(=O)(O)OP(=O)(O)O)[C@@H](O)[C@H]2O)c(=O)[nH]1 [UDP]

biological target: T1, GLT8D1 (recombinant secretory glycosyltransferase 8 domain-containing protein 1); experiment: UDP-Glo transferase assay; product by LC-MS/MS; format: biochemical; conditions: acceptor, 20 mM; UDP-Gal donor, 5 mM MnCl2, 50 mM Tris-HCl pH 7.5

Row | SMILES | UDP-Glo transferase assay; product by LC-MS/MS
8 | CC(=O)N[C@H]1C(O)O[C@H](CO)[C@H](O)[C@@H]1O (stereo partly drawn) [GalNAc] | With UDP-Gal as donor some transferase reaction was detected towards GalNAc and GlcNAc
9 | CC(=O)N[C@H]1C(O)O[C@H](CO)[C@@H](O)[C@@H]1O (stereo partly drawn) [GlcNAc] | With UDP-Gal as donor some transferase reaction was detected towards GalNAc and GlcNAc
